# Assay results from patent publication US20240294537A1, “SOLID STATE FORMS OF 4-[[4-(4-CHLOROANILINO)FURO[2,3-d]PYRIDAZIN-7-yl]OXYMETHYL]-N-METHYLPYRIDINE-2-CARBOXAMIDE AND SALT THEREOF” (TEVA PHARMACEUTICALS INTERNATIONAL GMBH, priority 2021, published 2024).
# Assay: Stability of the solid state form upon exposure to humidity
# Assay type: physicochemical
# Method: Telatinib mono mesylate Form TM2 is stable upon exposure to high humidity. Telatinib mono mesylate is stable when exposed to 20-100% RH at 25° C. for 7 days.
smiles,measurement,value
CNC(=O)c1cc(COc2nnc(Nc3ccc(Cl)cc3)c3ccoc23)ccn1.CS(=O)(=O)O [Telatinib mono mesylate Form TM2],stability upon exposure to high humidity,stable
